Laboratory results published in paper PMC6896740, “Safety, tolerability, pharmacokinetics, and pharmacodynamics of PF-06650833, a selective interleukin-1 receptor-associated kinase 4 (IRAK4) inhibitor, in single and multiple ascending dose randomized phase 1 studies in healthy subjects” (Arthritis Research & Therapy, 2019).
Read-outs that look alike come from different tables or passages of the source.

Assay: Study 2 (MAD) plasma and urine pharmacokinetics
Type: in vivo, human
Conditions: for AUC: read-out: AUCtau, geometric mean (%CV); for Cmax: read-out: Cmax, geometric mean (%CV); for Tmax: read-out: Tmax, median (range)
Protocol: Subjects were enrolled sequentially into seven cohorts. Within each cohort, eight subjects and two subjects were randomized to receive PF-06650833 and placebo, respectively. Doses for all cohorts were administered after a standard (not high-fat) meal. Multiple dosing regimens (once daily [QD] 24 h apart, twice daily [BID] 12 h apart, three times per day [TID] 8 h apart, and four times per day [QID] 6 h apart) were used to provide required total daily doses. In the final dosing scheme, multiple oral doses of PF-06650833 IR suspension formulations at 25, 100, 250, and 750 mg BID and 1000 mg QID were administered in cohorts 1–5. PF-06650833 IR 330 mg TID (cohort 6) and an MR tablet at a dose of 300 mg QD (cohort 7) were also evaluated (see Fig. 1b for final dosing scheme).
For both studies, samples of blood (and urine in study 2) were taken for evaluation of PK/PD parameters (see Additional file 1: Supplemental Methods). PK samples were obtained at the nominal time relative to dosing (± 10%). Plasma and urine samples were analyzed using validated, sensitive, and specific liquid chromatography tandem mass spectrometric methods (at Pfizer Inc., Groton, CT, USA, for study 1 and at Worldwide Pharmacokinetics, Dynamics and Metabolism, Cambridge, MA, USA, for study 2). The lower limit of quantification for PF-06650833 in plasma was 0.0500 ng/mL. The lower limit of quantification for PF-06650833 in urine was 1.00 ng/mL. Serum samples were also analyzed for hsCRP, and plasma samples were analyzed for 4β-hydroxycholesterol and cholesterol.
PK parameters were calculated using non-compartmental analysis of concentration-time data. For study 1 only, data from cohort 1 (period 4 [IR 30 mg] versus period 5 [IR 30 mg + food]) and cohort 3 (period 2 [MR 30 mg] versus period 3 [MR 30 mg + food]) were used to estimate the effect of food intake. Cmax and AUC were calculated for each subject and treatment, with and without food, after which a within-subject difference could be found between fed (high-fat meal) and fasted doses. Analysis of covariance was used to model these within-subject differences and to calculate 95% confidence intervals (CIs) for the differences for each dose (IR 30 mg and MR 30 mg). For study 2 only, the amounts of PF-06650833 in urine and renal clearance were listed and summarized descriptively. As part of the routine safety laboratory monitoring, the presence of any atypical crystals in urine specimens was semi-quantitatively assessed microscopically by typical histopathologic methods and scored as numbers of crystals per high power field (hpf); higher abundance (moderate or many) was defined as ≥ 15/hpf. No formal interim analyses were conducted.
22 In Study 2, pre-dose blood samples were collected for PK analysis on days 1, 2, 4, 7, 10, and
23 14. Post-dose samples were collected for PK analysis on days 1 and 14 at 0.5, 1, 2, 4, 6, 8, 10,
24 12, and 16 hours post-dose; on day 7 at 1, 2, 4, 6, 8, and 12 hours post-dose; and on days 15,
27 hours post-dose. […]
32 Blood samples (2 mL, to obtain ≥0.5 mL plasma) were collected in K2EDTA tubes
33 (dipotassium ethylenediaminetetraacetic acid) and centrifuged at ~1700 x g for 10 minutes at
34 4 °C, with plasma then stored in polypropylene tubes at -70 °C within 1 hour of collection.
35 Plasma samples were analyzed using a validated, sensitive , and specific liquid
36 chromatography tandem mass spectrometric method (LC -MS; at Pfizer Inc, Groton, CT, USA
37 for Study 1; and at Worldwide Pharmaco kinetics, Dynamics, and Metabolism, Cambridge,
38 MA, USA for Study 2). The lower limit of quantification (LLOQ) for PF-06650833 in plasma
39 was 0.0500 ng/mL. Between-day assay accuracy values were also calculated (not shown).
40 In Study 2 only, urine samples we re collected in aliquots pre-dose. Cumulative 0–12-hour
41 and 12–24-hour urine samples were also collected as follows: from day 1 after morning
42 dosing to day 2 before morning dosing (and before breakfast) for cohorts 6 –8 only; and from […]

[1] = IR 25 mg BID, day 14, fed (standard meal)
[2] = IR 100 mg BID, day 14, fed (standard meal)
[3] = IR 250 mg BID, day 14, fed (standard meal)
[4] = IR 330 mg TID, day 14, fed (standard meal)
[5] = IR 750 mg BID, day 14, fed (standard meal)
[6] = MR 300 mg QD, day 14, fed (standard meal)
[7] = human, plasma, oral, 25 mg, IR 25 mg BID, day 1, fed (standard meal)
[8] = human, plasma, oral, 25 mg, IR 25 mg BID, day 14, fed (standard meal)
[9] = human, plasma, oral, 100 mg, IR 100 mg BID, day 1, fed (standard meal)
[10] = human, plasma, oral, 100 mg, IR 100 mg BID, day 14, fed (standard meal)
[11] = human, plasma, oral, 250 mg, IR 250 mg BID, day 1, fed (standard meal)
[12] = human, plasma, oral, 250 mg, IR 250 mg BID, day 14, fed (standard meal)
[13] = human, plasma, oral, 300 mg, MR 300 mg QD, day 1, fed (standard meal)
[14] = human, plasma, oral, 300 mg, MR 300 mg QD, day 14, fed (standard meal)
[15] = human, plasma, oral, 330 mg, IR 330 mg TID, day 1, fed (standard meal)
[16] = human, plasma, oral, 330 mg, IR 330 mg TID, day 14, fed (standard meal)
[17] = human, plasma, oral, 750 mg, IR 750 mg BID, day 1, fed (standard meal)
[18] = human, plasma, oral, 750 mg, IR 750 mg BID, day 14, fed (standard meal)
[19] = human, plasma, oral, 1000 mg, IR 1000 mg QID, day 1, fed (standard meal)

Structure (SMILES): CC[C@@H]1[C@H](F)C(=O)N[C@@H]1COc1nccc2cc(C(N)=O)c(OC)cc12 [PF-06650833, 1-{[(2S,3S,4S)-3-Ethyl-4-fluoro-5-oxopyrrolidin-2-yl]methoxy}-7-methoxyisoquinoline-6-carboxamide]
- Tmax, median (range) (IR 25 mg BID, day 1, fed (standard meal)): 2.03 (1.00–4.00) h
- Ae24% (drug recovered unchanged in urine up to 24 h), geometric mean (%CV) [1]: 0.7288 (27) %
- CL/F, geometric mean (%CV) [1]: 122.4 (26) L/h
- Cav, geometric mean (%CV) [1]: 17.03 (26) ng/mL
- Cmin, geometric mean (%CV) [1]: 4.064 (46) ng/mL
- PTF (peak-trough fluctuation), geometric mean (%CV) [1]: 1.868 (21)
- Rac (observed accumulation ratio), geometric mean (%CV) [1]: 1.250 (19)
- Ae24% (drug recovered unchanged in urine up to 24 h), geometric mean (%CV) [2]: 0.9414 (29) %
- CL/F, geometric mean (%CV) [2]: 128.9 (16) L/h
- Cav, geometric mean (%CV) [2]: 64.72 (16) ng/mL
- Cmin, geometric mean (%CV) [2]: 14.13 (40) ng/mL
- PTF (peak-trough fluctuation), geometric mean (%CV) [2]: 1.740 (16)
- Rac (observed accumulation ratio), geometric mean (%CV) [2]: 1.373 (23)
- Ae24% (drug recovered unchanged in urine up to 24 h), geometric mean (%CV) [3]: 0.4822 (53) %
- CL/F, geometric mean (%CV) [3]: 183.7 (39) L/h
- Cav, geometric mean (%CV) [3]: 113.3 (39) ng/mL
- Cmin, geometric mean (%CV) [3]: 20.07 (76) ng/mL
- PTF (peak-trough fluctuation), geometric mean (%CV) [3]: 1.911 (14)
- Rac (observed accumulation ratio), geometric mean (%CV) [3]: 1.009 (13)
- Ae24% (drug recovered unchanged in urine up to 24 h), geometric mean (%CV) [4]: 0.6372 (34) %
- CL/F, geometric mean (%CV) [4]: 206.1 (28) L/h
- Cav, geometric mean (%CV) [4]: 200.1 (28) ng/mL
- Cmin, geometric mean (%CV) [4]: 51.48 (68) ng/mL
- PTF (peak-trough fluctuation), geometric mean (%CV) [4]: 1.307 (18)
- Rac (observed accumulation ratio), geometric mean (%CV) [4]: 1.068 (26)
- Ae24% (drug recovered unchanged in urine up to 24 h), geometric mean (%CV) [5]: 0.4885 (24) %
- CL/F, geometric mean (%CV) [5]: 302.9 (24) L/h
- CLr (renal clearance), geometric mean (%CV) [5]: 23.14 (19) mL/min
- Cav, geometric mean (%CV) [5]: 206.3 (24) ng/mL
- Cmin, geometric mean (%CV) [5]: 33.07 (50) ng/mL
- PTF (peak-trough fluctuation), geometric mean (%CV) [5]: 1.868 (12)
- Rac (observed accumulation ratio), geometric mean (%CV) [5]: 0.9377 (32)
- Ae24% (drug recovered unchanged in urine up to 24 h), geometric mean (%CV) [6]: 0.300 (70) %
- CL/F, geometric mean (%CV) [6]: 308.0 (65) L/h
- Cav, geometric mean (%CV) [6]: 40.62 (65) ng/mL
- Cmin, geometric mean (%CV) [6]: 6.471 (55) ng/mL
- PTF (peak-trough fluctuation), geometric mean (%CV) [6]: 3.383 (37)
- Rac (observed accumulation ratio), geometric mean (%CV) [6]: 0.8985 (24)
- Dose recovered unchanged in urine (all dose groups): Less than 1%
- Steady state reached by (all dose groups, based on Cmin): ≤ 4 days
- AUC [7]: 164 ng·h/mL
- Cmax [7]: 30 ng/mL
- Tmax [7]: 2 h
- AUC [8]: 204 ng·h/mL
- Cmax [8]: 36.2 ng/mL
- Tmax [8]: 2 h
- AUC [9]: 566 ng·h/mL
- Cmax [9]: 102 ng/mL
- Tmax [9]: 2.03 h
- AUC [10]: 776 ng·h/mL
- Cmax [10]: 128 ng/mL
- Tmax [10]: 2.02 h
- AUC [11]: 1350 ng·h/mL
- Cmax [11]: 226 ng/mL
- Tmax [11]: 4 h
- AUC [12]: 1360 ng·h/mL
- Cmax [12]: 238 ng/mL
- Tmax [12]: 2.02 h
- AUC [13]: 1150 ng·h/mL
- Cmax [13]: 149 ng/mL
- Tmax [13]: 4 h
- AUC [14]: 975 ng·h/mL
- Cmax [14]: 147 ng/mL
- Tmax [14]: 4 h
- AUC [15]: 1500 ng·h/mL
- Cmax [15]: 309 ng/mL
- Tmax [15]: 2.03 h
- AUC [16]: 1600 ng·h/mL
- Cmax [16]: 318 ng/mL
- Tmax [16]: 2 h
- AUC [17]: 2580 ng·h/mL
- Cmax [17]: 470 ng/mL
- Tmax [17]: 3.12 h
- AUC [18]: 2480 ng·h/mL
- Cmax [18]: 421 ng/mL
- Tmax [18]: 2 h
- AUC [19]: 2010 ng·h/mL
- Cmax [19]: 517 ng/mL
- Tmax [19]: 4 h
- Tmax at 1 day (human, plasma, oral, day 1, range across IR 25 to 1000 mg, standard meal, read-out: Median Tmax): 2 to 4 h
- Tmax at 14 day (human, plasma, oral, day 14, IR formulations, standard meal, read-out: Median Tmax): 2 h
- half-life (human, plasma, oral, range for IR 750 mg BID, IR 330 mg TID, MR 300 mg QD, read-out: Mean half-life at steady state): 25.4 to 31.4 h
- Vd/F (human, plasma, oral, IR 25 mg BID, day 14, fed (standard meal), read-out: Vz/F, geometric mean (%CV)): 9650 L
- Vd/F (human, plasma, oral, IR 100 mg BID, day 14, fed (standard meal), read-out: Vz/F, geometric mean (%CV)): 8060 L
- Vd/F (human, plasma, oral, IR 250 mg BID, day 14, fed (standard meal), read-out: Vz/F, geometric mean (%CV)): 10200 L
- Vd/F (human, plasma, oral, IR 330 mg TID, day 14, fed (standard meal), read-out: Vz/F, geometric mean (%CV)): 10100 L
- Vd/F (human, plasma, oral, IR 750 mg BID, day 14, fed (standard meal), read-out: Vz/F, geometric mean (%CV)): 13200 L
- Vd/F at 14 day (human, plasma, oral, MR 300 mg QD, day 14, fed (standard meal), read-out: Vz/F, geometric mean (%CV)): 11600 L
- Vd at 14 day (human, plasma, oral, range across all dosages, day 14, read-out: Mean volume of distribution): 8060 to 13200 L
- CL renal (human, urine and plasma, oral, 300 mg, MR 300 mg QD, day 14, fed (standard meal), read-out: CLr (renal clearance), geometric mean (%CV)): 15.4 mL/min
- CL renal (human, urine and plasma, oral, 330 mg, IR 330 mg TID, day 14, fed (standard meal), read-out: CLr (renal clearance), geometric mean (%CV)): 18.8 mL/min
- CL renal (human, urine and plasma, oral, range for IR < 750 mg and MR 300 mg, read-out: Renal clearance): 14 to 23 mL/min
- CL renal at 14 day (human, urine, oral, 25 mg, IR 25 mg BID, day 14, fed (standard meal), read-out: CLr (renal clearance), geometric mean (%CV)): 13.6 mL/min
- CL renal at 14 day (human, urine, oral, 100 mg, IR 100 mg BID, day 14, fed (standard meal), read-out: CLr (renal clearance), geometric mean (%CV)): 18.5 mL/min
- CL renal at 14 day (human, urine, oral, 250 mg, IR 250 mg BID, day 14, fed (standard meal), read-out: CLr (renal clearance), geometric mean (%CV)): 13.9 mL/min
- CL renal (human, urine, oral, 750 mg, IR 750 mg BID, day 14, fed (standard meal), read-out: CLr (renal clearance), geometric mean (%CV)): 23 mL/min
- CL renal (human, urine, oral, range for IR 25 mg BID, IR 330 mg TID and MR 300 mg QD, read-out: Renal clearance): 14 to 19 mL/min
